# Data from article PMC6066219 (PLoS ONE, 2018).
# “Also recorded” adds a separate entry of the source. Marks after values point to notes of the source that are not given here. Starred links: 1 amine or outer side, 2 acyl side, 3 side chain; linkers in the order of their positions; H or OH if unused. Positions of bridges follow the written chain, without caps; N, C: chain ends. Non-standard residues stand in square brackets, D forms with d. Residues, ends and D or L forms follow the SMILES beside them. Chains are numbered I, II in the order given. X1 = CC1=CC(=O)N(O)CCCC(NC(=O)CCN2C(=O)CC([*:3])C2=O)C(=O)OCCC(C)=CC(=O)N(O)CCCC(NC(=O)CCN2C(=O)CC([*:2])C2=O)C(=O)OCCC(C)=CC(=O)N(O)CCCC(NC(=O)CCN2C(=O)CC([*:1])C2=O)C(=O)OCC1; X2 = CC(=O)NC1CCCN(O)C(=O)C=C(C)CCOC(=O)C(NC(=O)CCN2C(=O)CC([*:1])C2=O)CCCN(O)C(=O)C=C(C)CCOC(=O)C(NC(=O)CCN2C(=O)CC([*:2])C2=O)CCCN(O)C(=O)C=C(C)CCOC1=O; Mpa = O=C(O)CCS
# Legend:
# [1] = freshly prepared human serum; details: 37°C, up to 4 h
# [2] = system: peptidase (protease type 1 from bovine pancreas, Sigma Aldrich); assay: PBS with 10 mU of peptidase; details: 37°C, up to 120 min
# CCK2 receptor = biological target: T1, CCK2 receptor (Homo sapiens, UniProt P32239); parameters: method as in PMID 29849512; details: natGa-labelled competitor; 125I-[Leu15]-Gastrin radioligand; whole A431-CCK2R cells; cited from earlier work
# T1 construct: expressed in transfected cells; host or cells: A431 human epidermoid carcinoma cells (A431-CCK2R), gift from Dr. L. Aloj
# T1 sequence (P32239 1-447): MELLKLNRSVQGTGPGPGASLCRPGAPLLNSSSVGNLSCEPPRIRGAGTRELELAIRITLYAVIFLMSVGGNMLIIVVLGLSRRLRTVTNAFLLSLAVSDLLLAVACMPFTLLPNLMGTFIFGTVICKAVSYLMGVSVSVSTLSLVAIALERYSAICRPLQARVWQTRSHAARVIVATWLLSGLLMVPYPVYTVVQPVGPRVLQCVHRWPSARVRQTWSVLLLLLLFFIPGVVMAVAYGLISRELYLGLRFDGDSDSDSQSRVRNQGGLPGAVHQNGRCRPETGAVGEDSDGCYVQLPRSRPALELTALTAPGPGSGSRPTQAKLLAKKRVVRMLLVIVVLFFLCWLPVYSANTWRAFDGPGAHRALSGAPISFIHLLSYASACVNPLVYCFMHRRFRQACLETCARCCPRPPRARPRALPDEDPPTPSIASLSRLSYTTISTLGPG
# [3] = cited from earlier work
# [4] = liver homogenate of injected mice; details: BALB/c mice, up to 5 min post injection
# [5] = system: peptidase (protease type 1 from bovine pancreas); assay: radiolabelling solution neutralized, diluted with PBS, 10 mU of peptidase; details: 37°C, up to 120 min
# [6] = system: peptidase (protease type 1 from bovine pancreas); assay: PBS with 1 mU of peptidase; details: 37°C, up to 2 h
# [7] = system: peptidase (protease type 1 from bovine pancreas); assay: neutralized Ga-labelling solution with 1 mU of peptidase; details: 37°C
# [8] = system: peptidase (protease type 1 from bovine pancreas); assay: iron chelated trimeric peptides dissolved in PBS, 1 mU of peptidase added; details: 37°C, up to 2 h
# [9] = system: peptidase (protease type 1 from bovine pancreas); assay: trimeric peptides labelled with non-radioactive gallium, neutralized, 1 mU of peptidase; details: 37°C
# [10] = system: A431-CCK2R/A431-mock tumour xenografted BALB/c nude mice; details: mouse, in vivo; cited from earlier work
compound,measurement,setting,value
"3-MP^0-[D-Glu^1,desGlu^2-6]-Ala-Tyr-Gly-Trp-Met-Asp-Phe-NH2 [68Ga-Trimer-Met]",fragment found,[1],"^68Ga-Trimer-Met-M1 (tR = 10.14 min), major; also recorded: ^68Ga-Trimer-Met-M2 (tR = 8.09 min), major"
same,fragment found,[2],"^68Ga-Trimer-Met-M1 (tR = 10.14 min), major; also recorded: ^68Ga-Trimer-Met-M2 (tR = 8.09 min), major; also recorded: ^68Ga-Trimer-Met-M3 (tR = 5.68 min)"
CSCC[C@H](NC(=O)[C@H](Cc1c[nH]c2ccccc12)NC(=O)CNC(=O)[C@H](Cc1ccc(O)cc1)NC(=O)[C@H](C)NC(=O)[C@@H](CCC(=O)O)NC(=O)CCSC1CC(=O)N(CCC(=O)NC2CCCN(O)C(=O)C=C(C)CCOC(=O)C(NC(=O)CCN3C(=O)CC(SCCC(=O)N[C@H](CCC(=O)O)C(=O)N[C@@H](C)C(=O)N[C@@H](Cc4ccc(O)cc4)C(=O)NCC(=O)N[C@@H](Cc4c[nH]c5ccccc45)C(=O)N[C@@H](CCSC)C(=O)N[C@@H](CC(=O)O)C(=O)N[C@@H](Cc4ccccc4)C(N)=O)C3=O)CCCN(O)C(=O)C=C(C)CCOC(=O)C(NC(=O)CCN3C(=O)CC(SCCC(=O)N[C@H](CCC(=O)O)C(=O)N[C@@H](C)C(=O)N[C@@H](Cc4ccc(O)cc4)C(=O)NCC(=O)N[C@@H](Cc4c[nH]c5ccccc45)C(=O)N[C@@H](CCSC)C(=O)N[C@@H](CC(=O)O)C(=O)N[C@@H](Cc4ccccc4)C(N)=O)C3=O)CCCN(O)C(=O)C=C(C)CCOC2=O)C1=O)C(=O)N[C@@H](CC(=O)O)C(=O)N[C@@H](Cc1ccccc1)C(N)=O (stereo partly drawn) [Trimer-Met] (I: [Mpa][dE]AYGWMDF-NH2 / II: [Mpa][dE]AYGWMDF-NH2 / III: [Mpa][dE]AYGWMDF-NH2; linker I:1-II:1-III:1 via X1),IC50,CCK2 receptor,8.33 ± 2.2 nM
same,Distribution coefficient logD (pH 7.4),[3],-2.20 ± 0.07
"3-MP^0-[D-Glu^1,desGlu^2-6]-Ala-Tyr-Gly-Trp-Nle-Asp-Phe-NH2 [^68Ga-Trimer-Nle]",fragment found,[4],"^68Ga-Trimer-Nle-M1, major, 5 min post injection; also recorded: ^68Ga-Trimer-Nle-M2, major, 5 min post injection"
same,fragment found,[5],"^68Ga-Trimer-Nle-M1, major, 5 min; also recorded: ^68Ga-Trimer-Nle-M2, major"
"3-MP^0-[D-Glu^1,desGlu^2-6]-Ala-Tyr-Gly-Trp-Met-Asp-Phe-NH2",cleaved bond,[6],"Tyr-Gly, major"
same,fragment found,[7],Ga-Trimer-Met-M1 (tR = 10.08 min); also recorded: Ga-Trimer-Met-M2 (tR = 8.02 min)
same,cleaved bond,[8],"Tyr-Gly, major"
same,fragment found,[9],Ga-Trimer-Met-M1; also recorded: Ga-Trimer-Met-M2; also recorded: Ga-Trimer-Met-M3
"3-MP^0-[D-Glu^1,desGlu^2-6]-Ala-Tyr-Gly-Trp-Nle-Asp-Phe-NH2 [68Ga-Trimer-Nle]",fragment found,[1],"^68Ga-Trimer-Nle-M1 (tR = 10.90 min), major; also recorded: ^68Ga-Trimer-Nle-M2 (tR = 8.59 min), major"
same,fragment found,[2],"^68Ga-Trimer-Nle-M1 (tR = 10.93 min), major; also recorded: ^68Ga-Trimer-Nle-M2 (tR = 8.60 min), major"
"3-MP^0-[D-Glu^1,desGlu^2-6]-Ala-Tyr-Gly-Trp-Nle-Asp-Phe-NH2",cleaved bond,[6],"Tyr-Gly, major"
same,fragment found,[7],Ga-Trimer-Nle-M1 (tR = 10.86 min); also recorded: Ga-Trimer-Nle-M2 (tR = 8.52 min)
same,cleaved bond,[8],"Tyr-Gly, major"
same,fragment found,[9],Ga-Trimer-Nle-M1; also recorded: Ga-Trimer-Nle-M2; also recorded: Ga-Trimer-Nle-M3
CSCC[C@H](NC(=O)[C@H](Cc1c[nH]c2ccccc12)NC(=O)CNC(=O)[C@H](Cc1ccc(O)cc1)NC(=O)[C@H](C)NC(=O)[C@@H](CCC(=O)O)NC(=O)CCSC1CC(=O)N(CCC(=O)NC2CCCN(O)C(=O)C=C(C)CCOC(=O)C(NC(=O)CCN3C(=O)CC(SCCC(=O)N[C@H](CCC(=O)O)C(=O)N[C@@H](C)C(=O)N[C@@H](Cc4ccc(O)cc4)C(=O)NCC(=O)N[C@@H](Cc4c[nH]c5ccccc45)C(=O)N[C@@H](CCSC)C(=O)N[C@@H](CC(=O)O)C(=O)N[C@@H](Cc4ccccc4)C(N)=O)C3=O)CCCN(O)C(=O)C=C(C)CCOC(=O)C(NC(C)=O)CCCN(O)C(=O)C=C(C)CCOC2=O)C1=O)C(=O)N[C@@H](CC(=O)O)C(=O)N[C@@H](Cc1ccccc1)C(N)=O (stereo partly drawn) [Dimer-Met] (I: [Mpa][dE]AYGWMDF-NH2 / II: [Mpa][dE]AYGWMDF-NH2; linker I:1-II:1 via X2),IC50,CCK2 receptor,0.85 ± 0.15 nM
same,Distribution coefficient logD (pH 7.4),[3],-2.38 ± 0.04
same,Ratio T/O tumour-to-A431-mock,[10],17.9 ± 6.1^c
same,Ratio T/O tumour-to-Blood,[10],16.0 ± 3.1^cd
same,Ratio T/O tumour-to-Bone,[10],11.6 ± 1.9^c
same,Ratio T/O tumour-to-Heart,[10],27.2 ± 4.8^cd
same,Ratio T/O tumour-to-Intestine,[10],19.9 ± 4.9^acd
same,Ratio T/O tumour-to-Kidneys,[10],0.30 ± 0.06^c
same,Ratio T/O tumour-to-Liver,[10],11.1 ± 2.4^cd
same,Ratio T/O tumour-to-Lung,[10],14.4 ± 2.3^cd
same,Ratio T/O tumour-to-Muscle,[10],31.4 ± 13.2^c
same,Ratio T/O tumour-to-Pancreas,[10],17.9 ± 3.2^cd
same,Ratio T/O tumour-to-Spleen,[10],23.1 ± 4.2^cd
same,Ratio T/O tumour-to-Stomach,[10],4.0 ± 0.5^cd
"Monomer-Met: monovalent FSC-based minigastrin conjugate: dAcFSC-mal coupled to one MG-Met-SH peptide (EAYGWMDF; D-Glu at position 1 (printed D-Glu1, desGlu2-6); N-terminal 3-mercaptopropanoyl (3-MP0) whose thiol is coupled to the maleimide of diacetyl-fusarinine C (dAcFSC-mal); C-terminal Phe amide; FSC chelate)",IC50,CCK2 receptor,9.71 ± 3.55 nM
"3-MP^0-[D-Glu^1,desGlu^2-6]-Ala-Tyr-Gly-Trp-Met-Asp-Phe-NH2 [^68Ga-Trimer-Met]",fragment found,[4],"^68Ga-Trimer-Met-M1, major, 5 min post injection; also recorded: ^68Ga-Trimer-Met-M2, major, 5 min post injection"
same,fragment found,[5],"^68Ga-Trimer-Met-M1, major, 5 min; also recorded: ^68Ga-Trimer-Met-M2, major; also recorded: ^68Ga-Trimer-Met-M3"
